Experimental data: PubChem BioAssay AID330 (DTP/NCI, 2004)
“And” between values parts separate entries of the source, which are not always exact repeats. Equal values may be shown once. Inconclusive results and toxic doses are left out.

Test system: P388 leukemia ip, CD2F1 mice, survival T/C
Assay: NCI In Vivo Anticancer Drug Screen. Data for tumor model P388 Leukemia (intraperitoneal) in CD2F1 (CDF1) mice
Details: endpoint: median survival time, higher = longer survival
Outline: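 Mice carrying the transplanted tumor received test compound or vehicle. Survival was recorded in each group, and the value is the treated-group measurement divided by that of the vehicle-treated control group.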

[1] = dose: 100.0 mg/kg/injection, schedule: Q01DX001 (ip), vehicle: Klucel (hydroxypropylcellulose) (HPC)
[2] = dose: 200.0 mg/kg/injection, schedule: Q01DX001 (ip), vehicle: Klucel (hydroxypropylcellulose) (HPC)
[3] = dose: 400.0 mg/kg/injection, schedule: Q01DX001 (ip), vehicle: Klucel (hydroxypropylcellulose) (HPC)
[4] = dose: 50.0 mg/kg/injection, schedule: Q01DX005 (ip), vehicle: saline with Tween-80
[5] = dose: 100.0 mg/kg/injection, schedule: Q01DX005 (ip), vehicle: saline with Tween-80
[6] = dose: 200.0 mg/kg/injection, schedule: Q01DX005 (ip), vehicle: saline with Tween-80
[7] = dose: 60.0 mg/kg/injection, schedule: Q01DX005 (ip), vehicle: saline with Tween-80
[8] = dose: 120.0 mg/kg/injection, schedule: Q01DX005 (ip), vehicle: saline with Tween-80
[9] = dose: 240.0 mg/kg/injection, schedule: Q01DX005 (ip), vehicle: saline with Tween-80
[10] = dose: 50.0 mg/kg/injection, schedule: Q01DX005 (ip), vehicle: Klucel (hydroxypropylcellulose) (HPC)
[11] = dose: 100.0 mg/kg/injection, schedule: Q01DX005 (ip), vehicle: Klucel (hydroxypropylcellulose) (HPC)
[12] = dose: 200.0 mg/kg/injection, schedule: Q01DX005 (ip), vehicle: Klucel (hydroxypropylcellulose) (HPC)
[13] = dose: 25.0 mg/kg/injection, schedule: Q04DX003 (ip), vehicle: saline with Tween-80
[14] = dose: 50.0 mg/kg/injection, schedule: Q04DX003 (ip), vehicle: saline with Tween-80
[15] = dose: 50.0 mg/kg/injection, schedule: Q01DX009 (ip), vehicle: saline
[16] = dose: 100.0 mg/kg/injection, schedule: Q01DX001 (ip), vehicle: saline with Tween-80
[17] = dose: 200.0 mg/kg/injection, schedule: Q01DX001 (ip), vehicle: saline with Tween-80

With Cc1cc(C)c2c(Nc3ccc4c(c3)OCO4)c(C(=O)O)cnc2c1 the T/C (dose: 60.0 mg/kg/injection, schedule: Q04DX002 (ip), vehicle: Klucel + Tween-80) was 95 % of control, the T/C (dose: 120.0 mg/kg/injection, schedule: Q04DX002 (ip), vehicle: Klucel + Tween-80) was 92 % of control and the T/C (dose: 240.0 mg/kg/injection, schedule: Q04DX002 (ip), vehicle: Klucel + Tween-80) was 101 % of control.
COc1ccc(-n2c(=O)c(N=Nc3ccccc3C)c(O)n(-c3ccccc3Cl)c2=S)cc1 was tested, and the T/C [1] was 100 % of control, the T/C [2] was 99 % of control and the T/C [3] was 95 % of control.
For Nc1ncc2[nH]c(=O)[nH]c2n1, the T/C [4] was 101 % of control, the T/C [5] was 100 % of control and the T/C [6] was 99 % of control.
COc1cccc(C2=NC(=C3CCCCC3)C(=O)O2)c1 was tested, and the T/C [7] was 105 % of control, the T/C [8] was 105 % of control and the T/C [9] was 100 % of control.
CCC(=O)OC1C2(O)C(OC(=O)C(C)C)C3(C)CC24OC2(C)OC15C1CC(=O)OC(c6ccoc6)C1(C)CCC5(O2)C4(C)C3CC(=O)OC (centres undefined) was tested, and the T/C (dose: 0.37 mg/kg/injection, schedule: Q01DX009 (ip), vehicle: Klucel (hydroxypropylcellulose) (HPC)) was 108 % of control, the T/C (dose: 0.75 mg/kg/injection, schedule: Q01DX009 (ip), vehicle: Klucel (hydroxypropylcellulose) (HPC)) was 101 % of control and the T/C (dose: 1.5 mg/kg/injection, schedule: Q01DX009 (ip), vehicle: Klucel (hydroxypropylcellulose) (HPC)) was 102 % of control. The T/C (dose: 3.0 mg/kg/injection, schedule: Q01DX009 (ip), vehicle: Klucel (hydroxypropylcellulose) (HPC)) was 96 % of control.
For CC1NC(=O)N(Cc2ccccc2Cl)C1=O (centres undefined), the T/C [10] was 110 % of control, the T/C [11] was 106 % of control and the T/C [12] was 110 % of control.
For O=NNc1ccc(Sc2ccc(NN=O)nc2)cc1, the T/C (dose: 3.12 mg/kg/injection, schedule: Q01DX009 (ip), vehicle: water) was 124 % of control, the T/C (dose: 6.25 mg/kg/injection, schedule: Q01DX009 (ip), vehicle: water) was 123 % of control and the T/C (dose: 12.5 mg/kg/injection, schedule: Q01DX009 (ip), vehicle: water) was 100 % of control.
In the case of CCCCCC(Cn1ccnc1)c1ccccc1Br (centres undefined), the T/C [13] is reported as 106 % of control, the T/C (dose: 33.0 mg/kg/injection, schedule: Q04DX003 (ip), vehicle: saline with Tween-80) is reported as 107 % of control and the T/C [14] is reported as 100 % of control and 108 % of control and 122 % of control. For the same molecule, the T/C (dose: 75.0 mg/kg/injection, schedule: Q04DX003 (ip), vehicle: saline with Tween-80) was 92 % of control and the T/C (dose: 100.0 mg/kg/injection, schedule: Q04DX003 (ip), vehicle: saline with Tween-80) was 106 % of control and 111 % of control and 90 % of control.
For O=C1C(N2CCOCC2)=C(N2CC2)C(=O)C(N2CCOCC2)=C1N1CC1, the T/C (dose: 0.25 mg/kg/injection, schedule: Q01DX009 (ip), vehicle: saline) was 119 % of control, the T/C (dose: 0.5 mg/kg/injection, schedule: Q01DX009 (ip), vehicle: saline) was 152 % of control and the T/C (dose: 0.66 mg/kg/injection, schedule: Q01DX009 (ip), vehicle: saline) was 153 % of control. The T/C (dose: 1.0 mg/kg/injection, schedule: Q01DX009 (ip), vehicle: saline) was 152 % of control and 161 % of control and the T/C (dose: 1.5 mg/kg/injection, schedule: Q01DX009 (ip), vehicle: saline) was 170 % of control.
With CCCC[P+](c1ccccc1)(c1ccccc1)c1ccccc1 the T/C (dose: 5.0 mg/kg/injection, schedule: Q01DX009 (ip), vehicle: saline sonified) was 118 % of control, the T/C (dose: 10.0 mg/kg/injection, schedule: Q01DX009 (ip), vehicle: saline sonified) was 122 % of control and the T/C (dose: 13.2 mg/kg/injection, schedule: Q01DX009 (ip), vehicle: saline sonified) was 118 % of control. The T/C (dose: 20.0 mg/kg/injection, schedule: Q01DX009 (ip), vehicle: saline sonified) was 118 % of control and the T/C (dose: 30.0 mg/kg/injection, schedule: Q01DX009 (ip), vehicle: saline sonified) was 90 % of control.
CC1CC2([Si](C)(C)C)C(=O)NC(=O)NC12 (centres undefined) was tested, and the T/C (dose: 25.0 mg/kg/injection, schedule: Q01DX005 (ip), vehicle: Klucel (hydroxypropylcellulose) (HPC)) was 112 % of control, the T/C [10] was 103 % of control and the T/C [11] was 112 % of control. The T/C [12] was 99 % of control.
O=C1Nc2ccccc2C(=O)C1(O)c1ccccc1 (centres undefined) was tested, and the T/C (dose: 60.0 mg/kg/injection, schedule: Q01DX005 (ip), vehicle: Klucel (hydroxypropylcellulose) (HPC)) was 105 % of control, the T/C (dose: 120.0 mg/kg/injection, schedule: Q01DX005 (ip), vehicle: Klucel (hydroxypropylcellulose) (HPC)) was 103 % of control and the T/C (dose: 240.0 mg/kg/injection, schedule: Q01DX005 (ip), vehicle: Klucel (hydroxypropylcellulose) (HPC)) was 94 % of control.
In the case of CCN(CC)C(C)COC(=O)c1ccc(N)cc1 (centres undefined), the T/C (dose: 12.5 mg/kg/injection, schedule: Q01DX009 (ip), vehicle: saline) is reported as 86 % of control, the T/C (dose: 12.5 mg/kg/injection, schedule: Q04DX003 (ip), vehicle: saline) is reported as 95 % of control and the T/C (dose: 25.0 mg/kg/injection, schedule: Q04DX003 (ip), vehicle: saline) is reported as 91 % of control. For the same molecule, the T/C [15] was 100 % of control and the T/C (dose: 50.0 mg/kg/injection, schedule: Q04DX003 (ip), vehicle: saline) was 91 % of control.
For O=[N+]([O-])c1cnccc1Nc1ccncc1, the T/C [16] was 100 % of control and the T/C [17] was 100 % of control.
With COCCCN=C(N)c1ccc(NC(=O)c2ccc(C(=O)Nc3ccc(C(N)=NCCCOC)cc3)cc2)cc1 the T/C (dose: 1.65 mg/kg/injection, schedule: Q01DX009 (ip), vehicle: saline with Tween-80) was 154 % of control, the T/C (dose: 2.5 mg/kg/injection, schedule: Q01DX009 (ip), vehicle: saline with Tween-80) was 154 % of control and the T/C (dose: 3.75 mg/kg/injection, schedule: Q01DX009 (ip), vehicle: saline with Tween-80) was 195 % of control. For the same molecule, the T/C (dose: 5.63 mg/kg/injection, schedule: Q01DX009 (ip), vehicle: saline with Tween-80) was 227 % of control, the T/C (dose: 6.6 mg/kg/injection, schedule: Q04DX003 (ip), vehicle: saline with Tween-80) was 155 % of control and the T/C (dose: 10.0 mg/kg/injection, schedule: Q04DX003 (ip), vehicle: saline with Tween-80) was 150 % of control. The T/C (dose: 12.5 mg/kg/injection, schedule: Q04DX003 (ip), vehicle: saline with Tween-80) was 177 % of control, the T/C (dose: 15.0 mg/kg/injection, schedule: Q04DX003 (ip), vehicle: saline with Tween-80) was 200 % of control and the T/C [13] was 200 % of control. The T/C [14] was 90 % of control.
With c1ccc(P(CCP(c2ccccc2)c2ccccc2)c2ccccc2)cc1 the T/C (dose: 25.0 mg/kg/injection, schedule: Q04DX003 (ip), vehicle: Klucel (hydroxypropylcellulose) (HPC)) was 117 % of control, the T/C (dose: 100.0 mg/kg/injection, schedule: Q04DX003 (ip), vehicle: Klucel (hydroxypropylcellulose) (HPC)) was 153 % of control and the T/C (dose: 200.0 mg/kg/injection, schedule: Q04DX003 (ip), vehicle: Klucel (hydroxypropylcellulose) (HPC)) was 161 % of control.
For Oc1c2ccccc2c(O)c2nc3ccccc3nc12, the T/C [15] was 100 % of control, the T/C (dose: 100.0 mg/kg/injection, schedule: Q01DX009 (ip), vehicle: saline) was 99 % of control and the T/C (dose: 200.0 mg/kg/injection, schedule: Q01DX009 (ip), vehicle: saline) was 100 % of control.
For C/C(=N\Oc1ncc([N+](=O)[O-])c(O/N=C(\C)c2ccccc2)n1)c1ccccc1, the T/C [7] was 100 % of control, the T/C [8] was 88 % of control and the T/C [9] was 91 % of control.
In the case of CCOC(=O)C(CC(C)C(C)=O)C(=O)OCC (centres undefined), the T/C (dose: 12.5 mg/kg/injection, schedule: Q01DX009 (ip), vehicle: other) is reported as 93 % of control, the T/C (dose: 25.0 mg/kg/injection, schedule: Q01DX009 (ip), vehicle: other) is reported as 90 % of control and the T/C (dose: 50.0 mg/kg/injection, schedule: Q01DX009 (ip), vehicle: other) is reported as 94 % of control. For the same molecule, the T/C (dose: 100.0 mg/kg/injection, schedule: Q01DX009 (ip), vehicle: other) was 97 % of control and the T/C (dose: 200.0 mg/kg/injection, schedule: Q01DX009 (ip), vehicle: other) was 103 % of control.
With COc1cc(C(CC#N)CC#N)cc(OC)c1OC the T/C [4] was 96 % of control, the T/C [5] was 99 % of control and the T/C [6] was 97 % of control.
For NC(=S)N/N=C/c1c(Cl)nc2sccn12, the T/C [1] was 92 % of control, the T/C [2] was 97 % of control and the T/C [3] was 97 % of control.
For CC(=O)Nc1ccccc1/C=C/c1ccccn1, the T/C [16] was 106 % of control, the T/C [17] was 106 % of control and the T/C (dose: 400.0 mg/kg/injection, schedule: Q01DX001 (ip), vehicle: saline with Tween-80) was 95 % of control.
